Source: publication PMC5141568 (ACS Medicinal Chemistry Letters, 2015)
Entries after “also recorded” stand apart in the source; their conditions may differ.

Each compound was assayed against T1, Naegleria Tet1 (NgTet1) (Naegleria gruberi, UniProt D2W6T1) (assay: FP competitive binding assay). Details: 2.5 and 1.25 mM.
T1 sequence (D2W6T1 1-321): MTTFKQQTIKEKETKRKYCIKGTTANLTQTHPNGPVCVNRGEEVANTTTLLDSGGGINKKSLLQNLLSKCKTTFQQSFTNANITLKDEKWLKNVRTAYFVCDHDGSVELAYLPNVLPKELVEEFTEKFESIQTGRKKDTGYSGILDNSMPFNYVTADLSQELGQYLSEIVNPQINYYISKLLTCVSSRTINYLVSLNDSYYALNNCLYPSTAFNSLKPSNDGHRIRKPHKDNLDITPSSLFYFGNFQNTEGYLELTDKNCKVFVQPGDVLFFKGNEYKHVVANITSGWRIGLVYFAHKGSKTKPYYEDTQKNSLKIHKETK

SMILES | inhibition at the highest concentrations tested
O=C(O)CC[C@@H](O)C(=O)O [compound 7, D-2-hydroxyglutaric acid] | very slight inhibition

Same assay, conditions: at the concentrations tested (up to 5.0 mM for 8 and 9)

SMILES | competitive displacement of 3 from NgTet1
O=C(O)CCC(=O)C(=O)O [compound 4, α-ketoglutarate] | showed the ability to competitively displace 3
O=C(O)CNC(=O)C(=O)O [compound 5, N-oxalyl glycine] | showed the ability to competitively displace 3
O=C(O)c1ccnc(C(=O)O)c1 [compound 6, pyridine 2,4-dicarboxylic acid] | showed the ability to competitively displace 3
Cc1cn([C@H]2C[C@H](O)[C@@H](CO)O2)c(=O)nc1N [compound 8, 5-methyl-2'-deoxycytidine] | Neither 5mC (8) nor 5hmC (9) showed competitive binding; also recorded: unable to competitively displace 3
Nc1nc(=O)n([C@H]2C[C@H](O)[C@@H](CO)O2)cc1CO [compound 9, 2'-deoxy-5-(hydroxymethyl)cytidine] | Neither 5mC (8) nor 5hmC (9) showed competitive binding; also recorded: unable to competitively displace 3
